The results in this text go back to patent publication US20240016942A1, “STAT DEGRADERS AND USES THEREOF” (Kymera Therapeutics, Inc., priority 2020, published 2024).

Read-outs that look alike come from different tables or passages of the source.

The target in this test is T1, STAT3 (Homo sapiens, UniProt P40763).
T1 construct: expressed in transfected cells; host or cells: A549
Kind of test: STAT3 HiBiT degradation assay (Nano-Glo HiBiT lytic detection) in transfected A549 cells. The test is classed as cell-based. The procedure:
Example 1. HiBiT Assay Protocol
Compound preparation and Cell seeding: The transfected A549 cells were harvested from dish into cell culture medium and cell numbers counted. Cells were diluted with culture medium to the desired density and 30 μL of cell suspension (about 2000 cells/well) were added into each well of a 384-well cell culture plate as designated and transferred into 37° C. 5% CO2 incubator for 24 h. Compounds were dissolved to 10 mM stock solution and 12 μL of the stock solution was transferred to a 384 LDV-plate. 3 fold, 10-point dilution was performed by transferring 4 μL compound into 8 μL DMSO using a TECAN (EVO200) liquid handler. 30 μl of diluted compound from compound source plate was transferred into the cell plate as designated by using Echo550 and transferred into 37° C. 5% CO2 incubator for 24 h.
Detection: Plates were removed from incubators and equilibrated at room temperature for 15 minutes. Nano-Glo Hibit Lytic Detection reagent (Promega Cat #N3040) was thawed and equilibrated to room temperature before the experiment. 30 μL of Nano-Glo Hibit Lytic Detection reagent was added into each well to be detected. The plates were held at room temperature for 10 min followed by reading on EnSpire.
Data analysis: The remaining activity was calculated following the formula: Remaining Activity (%)=100%×(Lumsample−LumNC)/(LumPC−LumNC). Calculate the IC50 by fitting the curve using Xlfit (v5.3.1.3), equation 201: fit=(A+((B−A)/(1+((x/C)^D)))); A: Botton; B: Top; C: IC50; and D: Slope.
The letter codes for STAT3 DC50 include: A (<0.01 μM), B (0.01-0.1 μM), C (0.1-1.0 μM), and D (>1.0 μM).
(In general: HiBiT is a short tag that completes a luciferase, so light tracks the accessible tagged protein.)

[1] abbreviates: 24 h compound incubation, read-out: STAT3 HiBIT A549 degradation 24 h: Average external-Abs DC50.
Where [2] appears, read: read-out: STAT3 HiBIT A549 degradation 24 h: Average external-Abs DC50, 24 h compound incubation.

T1 sequence (P40763 whole entry): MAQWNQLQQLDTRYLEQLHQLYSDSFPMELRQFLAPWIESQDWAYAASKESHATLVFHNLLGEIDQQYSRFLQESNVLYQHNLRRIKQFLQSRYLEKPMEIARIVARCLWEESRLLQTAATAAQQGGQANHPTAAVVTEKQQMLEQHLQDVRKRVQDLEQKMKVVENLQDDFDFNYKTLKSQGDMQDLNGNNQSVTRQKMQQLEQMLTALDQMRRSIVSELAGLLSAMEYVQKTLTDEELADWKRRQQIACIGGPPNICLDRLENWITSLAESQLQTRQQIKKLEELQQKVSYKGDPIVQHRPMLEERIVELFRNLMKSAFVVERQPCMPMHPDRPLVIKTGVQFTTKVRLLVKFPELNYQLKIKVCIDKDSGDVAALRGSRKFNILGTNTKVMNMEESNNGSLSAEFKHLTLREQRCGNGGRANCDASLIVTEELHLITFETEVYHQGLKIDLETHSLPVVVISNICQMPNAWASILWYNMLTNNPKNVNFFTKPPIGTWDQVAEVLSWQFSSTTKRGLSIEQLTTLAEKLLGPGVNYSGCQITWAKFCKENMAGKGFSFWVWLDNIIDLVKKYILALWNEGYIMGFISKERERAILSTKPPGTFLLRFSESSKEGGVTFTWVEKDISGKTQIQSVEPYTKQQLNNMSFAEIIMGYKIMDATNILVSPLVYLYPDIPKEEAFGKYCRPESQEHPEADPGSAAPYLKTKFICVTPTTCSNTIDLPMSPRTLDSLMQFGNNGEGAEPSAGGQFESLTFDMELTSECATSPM

What is called DC50 is the concentration at which degradation of the target reaches its halfway point. As for `Cn1c(=O)n(C2CCC(=O)NC2=O)c2ccc(C[C@H]3CC[C@@H](CCN4CC[C@H]5CC[C@@H](C(=O)N[C@@H](CCC(N)=O)C(=O)NCc6ccc(S(C)(=O)=O)cc6)N5C(=O)[C@@H](NC(=O)c5cc6cc(C(=O)P(=O)(O)O)ccc6[nH]5)C4)CC3)cc21` (stereo partly drawn) [I-52, 2-[[(5S,8S,10aR)-8-[[(1S)-3-carbamoyl-1-[[(4-methanesulfonylphenyl)methyl]carbamoyl]propyl]carbamoyl]-6-oxo-3-[2-[(1s,4s)-4-[[1-(2,6-dioxopiperidin-3-yl)-3-methyl-2-oxo-1,3-benzodiazol-5-yl]methyl]cyclohexyl]ethyl]-octahydropyrrolo[1,2-a][1,5]diazocin-5-yl]carbamoyl]-1H-indole-5-carbonylphosphonic acid], the DC50 under setting [1] was in the range of 0.1 to 1 µM. Take `CC(C)c1ccc(CNC(=O)[C@H](CCC(N)=O)NC(=O)[C@@H]2CC[C@@H]3CCN(C(=O)[C@H]4CC[C@@H](CCc5ccc6c(c5)n(C)c(=O)n6C5CCC(=O)NC5=O)CC4)C[C@H](NC(=O)c4cc5cc(C(=O)P(=O)(O)O)ccc5[nH]4)C(=O)N32)c(F)c1` (stereo partly shown) [I-34]: under setting [1], the DC50 lay in the range of 0.01 to 0.1 µM. In the case of `Cc1cc(CCCC(=O)N[C@H](C(=O)N2C[C@H](O)C[C@H]2C(=O)N[C@@H](C)c2ccc(-c3scnc3C)cc2)C(C)(C)C)c(F)c(OC[C@H](CCC(N)=O)NC(=O)[C@@H]2CC[C@@H]3CCCC[C@H](NC(=O)c4cc5cc(C(=O)P(=O)(O)O)ccc5[nH]4)C(=O)N32)c1` [I-7], the DC50 under setting [1] is below 0.01 µM. Still for that read-out and setting: then `Cn1c(=O)n(C2CCC(=O)NC2=O)c2ccc(C[C@H]3CC[C@@H](CC(=O)N4CC[C@H]5CC[C@@H](C(=O)NC6(CCC(N)=O)CC6)N5C(=O)[C@@H](NC(=O)c5cc6cc(C(=O)P(=O)(O)O)ccc6[nH]5)C4)CC3)cc21` (stereo partly shown) [I-31], with above 1 µM; and `C[C@H](NC(=O)[C@H](CCC(N)=O)NC(=O)[C@@H]1CC[C@@H]2CCN(C(=O)C[C@H]3CC[C@@H](Cc4ccc5c(c4)n(C)c(=O)n5C4CCC(=O)NC4=O)CC3)C[C@H](NC(=O)c3cc4cc(C(=O)P(=O)(O)O)ccc4[nH]3)C(=O)N21)c1ccc(S(C)(=O)=O)cc1` (stereo partly shown) [I-41], with 0.1 to 1 µM.

Take `Cc1ncsc1-c1ccc([C@H](C)NC(=O)[C@@H]2C[C@@H](O)CN2C(=O)[C@@H](NC(=O)CCCc2cccc(OC[C@H](CCC(N)=O)NC(=O)[C@@H]3CC[C@@H]4CCN(C(=O)C(C)C)C[C@H](NC(=O)c5cc6cc(C(=O)P(=O)(O)O)ccc6[nH]5)C(=O)N43)c2Cl)C(C)(C)C)cc1` [I-54]: the DC50 under setting [1] was below 0.01 µM. The same measure, in the same setting: the figure for `Cn1c(=O)n(C2CCC(=O)NC2=O)c2ccc(CCCCCc3cccc(OC[C@H](CCC(N)=O)NC(=O)[C@@H]4CC[C@@H]5CCCC[C@H](NC(=O)c6cc7cc(C(=O)P(=O)(O)O)ccc7[nH]6)C(=O)N54)c3Cl)cc21` (stereo partly shown) [I-28] is 0.1 to 1 µM; for `CC(C)c1ccc(CNC(=O)[C@H](CCC(N)=O)NC(=O)[C@@H]2CC[C@@H]3CCN(C(=O)[C@H]4CC[C@@H](CCc5ccc6c(c5)n(C)c(=O)n6C5CCC(=O)NC5=O)CC4)C[C@H](NC(=O)c4cc5cc(C(=O)P(=O)(O)O)ccc5[nH]4)C(=O)N32)cc1F` (stereo partly shown) [I-30] it is 0.01 to 0.1 µM; for `CC(=O)N1CC[C@H]2CC[C@@H](C(=O)N[C@@H](CCC(N)=O)COc3cccc(CCCCC(=O)N[C@H](C(=O)N4C[C@@H](O)C[C@H]4C(=O)N[C@@H](C)c4ccc(-c5scnc5C)cc4)C(C)(C)C)c3Cl)N2C(=O)[C@@H](NC(=O)c2cc3cc(C(=O)P(=O)(O)O)ccc3[nH]2)C1` [I-43] it is above 1 µM. Same read-out and setting: the figure for `CC(=O)N1CC[C@H]2CC[C@@H](C(=O)N[C@@H](CCC(N)=O)COc3cccc(CCCC(=O)N[C@H](C(=O)N4C[C@H](O)C[C@H]4C(=O)NC4(c5ccc(-c6scnc6C)cc5)CC4)C(C)(C)C)c3Cl)N2C(=O)[C@@H](NC(=O)c2cc3cc(C(=O)P(=O)(O)O)ccc3[nH]2)C1` [I-72] is 0.01 to 0.1 µM; for `CC(=O)N1CC[C@H]2CC[C@@H](C(=O)N[C@@H](CCC(N)=O)COc3cc(F)cc(CCCC(=O)N[C@H](C(=O)N4C[C@H](O)C[C@H]4C(=O)N[C@@H](C)c4ccc(-c5scnc5C)cc4)C(C)(C)C)c3Cl)N2C(=O)[C@@H](NC(=O)c2cc3cc(C(=O)P(=O)(O)O)ccc3[nH]2)C1` [I-77] it is below 0.01 µM. Take `Cn1c(=O)n(C2CCC(=O)NC2=O)c2ccc(C[C@H]3CC[C@@H](CC(=O)N4CC[C@H]5CC[C@@H](C(=O)N[C@@H](CCC(N)=O)C(=O)NCc6ccc(S(C)(=O)=O)cc6F)N5C(=O)[C@@H](NC(=O)c5cc6cc(C(=O)P(=O)(O)O)ccc6[nH]5)C4)CC3)cc21` (stereo partly shown) [I-44]: the DC50 under setting [1] was 0.01 to 0.1 µM. For the compound `Cc1ncsc1-c1ccc([C@H](C)NC(=O)[C@@H]2C[C@@H](O)CN2C(=O)[C@@H](NC(=O)CCCCCc2cccc(OC[C@H](CCC(N)=O)NC(=O)[C@@H]3CC[C@@H]4CCCC[C@H](NC(=O)c5cc6cc(C(=O)P(=O)(O)O)ccc6[nH]5)C(=O)N43)c2F)C(C)(C)C)cc1` [I-6], under setting [1], the DC50 is 0.01 to 0.1 µM. On the same count and under the same terms, then `Cn1c(=O)n(C2CCC(=O)NC2=O)c2ccc(C[C@H]3CC[C@@H](CC(=O)N4CC[C@H]5CC[C@@H](C(=O)NC6(CCC(N)=O)CCCC6)N5C(=O)[C@@H](NC(=O)c5cc6cc(C(=O)P(=O)(O)O)ccc6[nH]5)C4)CC3)cc21` (stereo partly shown) [I-29], with above 1 µM. For `Cc1ncsc1-c1ccc([C@H](C)NC(=O)[C@@H]2C[C@@H](O)CN2C(=O)[C@@H](NC(=O)CCCc2cccc(OC[C@H](CCC(N)=O)NC(=O)[C@@H]3CCCN3C(=O)[C@H](C)NC(=O)c3cc4cc(C(=O)P(=O)(O)O)ccc4[nH]3)c2Cl)C(C)(C)C)cc1` [I-58], the 50% degradation concentration (DC50) under setting [1] lay in the range of 0.01 to 0.1 µM. Same read-out and setting: the figure for `CC(C)S(=O)(=O)c1ccc(CNC(=O)[C@H](CCC(N)=O)NC(=O)[C@@H]2CC[C@@H]3CCN(C(=O)C[C@H]4CC[C@@H](Cc5ccc6c(c5)n(C)c(=O)n6C5CCC(=O)NC5=O)CC4)C[C@H](NC(=O)c4cc5cc(C(=O)P(=O)(O)O)ccc5[nH]4)C(=O)N32)cc1` (stereo partly shown) [I-70] is 0.01 to 0.1 µM. `COC(=O)N1CC[C@H]2CC[C@@H](C(=O)N[C@@H](CCC(N)=O)COc3cccc(CCCC(=O)N[C@H](C(=O)N4C[C@H](O)C[C@H]4C(=O)N[C@@H](C)c4ccc(-c5scnc5C)cc4)C(C)(C)C)c3Cl)N2C(=O)[C@@H](NC(=O)c2cc3cc(C(=O)P(=O)(O)O)ccc3s2)C1` [I-86]: the DC50 under setting [2] was above 1 µM.

For `Cn1c(=O)n(C2CCC(=O)NC2=O)c2ccc(C[C@H]3CC[C@H](CC(=O)N4CC[C@H]5CC[C@@H](C(=O)N[C@@H](CCC(N)=O)C(=O)NCc6ccc(S(C)(=O)=O)cc6)N5C(=O)[C@@H](NC(=O)c5cc6cc(C(=O)P(=O)(O)O)ccc6[nH]5)C4)CC3)cc21` (stereo partly shown) [I-74], the DC50 under setting [1] is 0.01 to 0.1 µM. The same measure, in the same setting: the figure for `Cc1ncsc1-c1ccc(C2(NC(=O)[C@@H]3C[C@@H](O)CN3C(=O)[C@@H](NC(=O)CCCCc3cccc(OC[C@H](CCC(N)=O)NC(=O)[C@@H]4CC[C@@H]5CCCC[C@H](NC(=O)c6cc7cc(C(=O)P(=O)(O)O)ccc7[nH]6)C(=O)N54)c3Cl)C(C)(C)C)CC2)cc1` [I-10] is below 0.01 µM; for `Cn1c(=O)n(C2CCC(=O)NC2=O)c2ccc(CC[C@H]3CC[C@@H](C(=O)N4CC[C@H]5CC[C@@H](C(=O)N[C@@H](CCC(N)=O)c6nc7ccccc7s6)N5C(=O)[C@@H](NC(=O)c5cc6cc(C(=O)P(=O)(O)O)ccc6[nH]5)C4)CC3)cc21` (stereo partly shown) [I-37] it is 0.01 to 0.1 µM.

On to `Cc1cc(CCCCCC(=O)N[C@H](C(=O)N2C[C@H](O)C[C@H]2C(=O)N[C@@H](C)c2ccc(-c3scnc3C)cc2)C(C)(C)C)c(F)c(OC[C@H](CCC(N)=O)NC(=O)[C@@H]2CC[C@@H]3CCCC[C@H](NC(=O)c4cc5cc(C(=O)P(=O)(O)O)ccc5[nH]4)C(=O)N32)c1` [I-4], for which the 50% degradation concentration (DC50) under setting [1] is below 0.01 µM.

For the compound `Cn1c(=O)n(C2CCC(=O)NC2=O)c2ccc(C[C@H]3CC[C@@H](CC(=O)N4CC[C@H]5CC[C@@H](C(=O)N[C@@H](CCC(N)=O)C(=O)NCc6ccc(S(C)(=O)=O)cc6Cl)N5C(=O)[C@@H](NC(=O)c5cc6cc(C(=O)P(=O)(O)O)ccc6[nH]5)C4)CC3)cc21` (stereo partly shown) [I-45], the 50% degradation concentration (DC50) under setting [1] lay in the range of 0.01 to 0.1 µM. Take `Cc1ncsc1-c1ccc([C@H](C)NC(=O)[C@@H]2C[C@@H](O)CN2C(=O)[C@@H](NC(=O)CCCc2cccc(OC[C@H](CCC(N)=O)NC(=O)[C@@H]3CC[C@@H]4CCCC[C@H](NC(=O)c5cc6cc(C(=O)P(=O)(O)O)ccc6s5)C(=O)N43)c2Cl)C(C)(C)C)cc1` [I-88]: the DC50 under setting [2] is above 1 µM. In the case of `Cc1ncsc1-c1ccc([C@H](C)NC(=O)[C@@H]2C[C@@H](O)CN2C(=O)[C@@H](NC(=O)CCCc2cccc(OC[C@H](CCC(N)=O)NC(=O)[C@@H]3CCCN3C(=O)[C@H](Cc3c[nH]cn3)NC(=O)c3cc4cc(C(=O)P(=O)(O)O)ccc4[nH]3)c2Cl)C(C)(C)C)cc1` [I-61], the DC50 under setting [1] fell in the range of 0.01 to 0.1 µM. On the same count and under the same terms, then `Cc1ncsc1-c1ccc([C@H](C)NC(=O)[C@@H]2C[C@@H](O)CN2C(=O)[C@@H](NC(=O)CCCc2cccc(OC[C@H](CCC(N)=O)NC(=O)[C@@H]3CC[C@@H]4CCN(C(=O)c5cccc(F)c5)C[C@H](NC(=O)c5cc6cc(C(=O)P(=O)(O)O)ccc6[nH]5)C(=O)N43)c2Cl)C(C)(C)C)cc1` [I-60], with 0.01 to 0.1 µM.
